Assay results from patent US20040185500A1, “Use of disease-associated gene” (priority 2001, published 2004).

Target: T1, human CLCA4-expressing CHO cells (Homo sapiens, UniProt Q14CN2)
T1 construct: expressed in transfected cells
T1 sequence (Q14CN2 22-919): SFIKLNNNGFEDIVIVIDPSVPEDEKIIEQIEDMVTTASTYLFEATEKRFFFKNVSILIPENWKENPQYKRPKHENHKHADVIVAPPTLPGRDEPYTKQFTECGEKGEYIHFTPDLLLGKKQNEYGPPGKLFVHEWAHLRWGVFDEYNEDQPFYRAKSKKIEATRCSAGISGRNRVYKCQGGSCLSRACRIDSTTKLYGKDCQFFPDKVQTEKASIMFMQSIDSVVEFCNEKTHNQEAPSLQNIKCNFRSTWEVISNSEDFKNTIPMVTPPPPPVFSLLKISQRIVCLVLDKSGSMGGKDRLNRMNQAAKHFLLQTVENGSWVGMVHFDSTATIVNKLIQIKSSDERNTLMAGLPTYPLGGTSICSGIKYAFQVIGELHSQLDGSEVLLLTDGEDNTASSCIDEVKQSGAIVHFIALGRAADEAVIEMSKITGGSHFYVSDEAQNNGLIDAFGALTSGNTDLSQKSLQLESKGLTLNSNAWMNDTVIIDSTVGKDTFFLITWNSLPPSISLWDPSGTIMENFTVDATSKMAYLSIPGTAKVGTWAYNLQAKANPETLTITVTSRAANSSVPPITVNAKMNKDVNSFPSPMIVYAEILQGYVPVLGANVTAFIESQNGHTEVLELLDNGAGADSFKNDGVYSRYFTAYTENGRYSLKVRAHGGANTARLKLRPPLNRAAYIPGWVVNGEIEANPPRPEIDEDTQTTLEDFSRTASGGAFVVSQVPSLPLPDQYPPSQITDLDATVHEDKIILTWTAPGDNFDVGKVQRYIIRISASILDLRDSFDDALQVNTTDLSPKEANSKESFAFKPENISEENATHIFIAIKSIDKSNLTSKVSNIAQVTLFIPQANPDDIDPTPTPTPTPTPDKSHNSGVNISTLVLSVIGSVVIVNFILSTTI
Assay: Ca2+ dependent Cl- channel activity, FLIPR Membrane Potential Assay, ionomycin stimulation
Assay type: cell-based
Conditions: 2 μM ionomycin, compound added, then cells left for 10 min at room temperature, FIG. 3
Description: The ClCA4 expression plasmid pcDNA-hCLCA4 described in (2) above was introduced into CHO cells using FuGENE 6 (Roche Diagnostics) according to the manual accompanying it. The cells were subjected to selective culture in 1 mg/ml neomycin (G418) (Gibco BRL)-added MEM-α medium (Gibco BRL) for 10 days, and cells growing in this medium were obtained as CLCA4 expressing CHO cells. These CLCA4-expressing CHO cells and parent strain CHO cells were plated in 96-well black clear bottom plates (Corning) at 4×10^4 cells/well and cultured overnight. Cl^− channel activity was measured using FLIPR Membrane Potential Assay Kit (Molecular Device). A potential sensitive dye (Component A) diluted with 20 mM HEPES-containing HBSS buffer (Component B) was added to the plates at […] and reacted at 37° C. for 30 min. Then, the plates were set in FLIPR (Molecular Device) and, after addition of ionomycin (Wako Purechemical industries) at a final concentration of 2 μM, changes in fluorescence were observed as Cl^− channel activity. In both parent strain CHO cells and human CLCA4-expressing CHO cells, increase in fluorescence intensity was hardly recognized in the absence of stimulation. When stimulated with 2 μM ionomycin, increase in fluorescence intensity was observed only in human CLCA4-expressing CHO cells (FIG. 2). […]

- increase in fluorescence intensity caused by stimulation with ionomycin (Cl- channel activity): inhibited
SMILES: O=C(O)c1cccnc1Nc1cccc(C(F)(F)F)c1 [niflumic acid]
